Source: patent US20200282010A1, “IMMUNOGENIC COMPOSITIONS AND USES THEREFOR” (Epiaxis Therapeutics Pty Ltd, priority 2017, published 2020)

Experiments:
MCF7 cells = experiment: Cell proliferation (WST-1 assay); format: cell-based; conditions: FIG. 1E
Excerpt: (§1) FIG. 1 is a graphical, schematic and photographic representation showing that PKC-θ can be targeted for therapeutic intervention. A) Depicts the strength of binding of recombinant purified His6-PKC-θ to increasing concentrations of different subunits and subunit combinations (α2, α2β1, and β1) of the importin α/β heterodimer nuclear transport receptor using an AlphaScreen® binding assay as described in Wagstaff et al. (2011. Journal of Biomolecular Screening 16 (2):192-200). B-C) Depicts protein structure of PKC-θ indicating binding locations for the PKC-θ peptide inhibitor, PKCθi (RKEIDPPFRPKVK), including the nuclear localization sequence (NLS) of PKC-θ. D) The specificity of PKCθi was examined on cells treated with this peptide inhibitor. Cells were screened with primary antibodies to PKC-θ (T538p), PKC-β2, PKC-β1, PKC-α, PKC-ε and PKC-γ. The nuclear to cytoplasmic fluorescence ratio (Fn/c) using the equation: Fn/c=(Fn−Fb)/(Fc−Fb), where Fn is nuclear fluorescence, Fc is cytoplasmic fluorescence, and Fb is background fluorescence was used to determine the impact on nuclear translocation/localization. […] EC^50 of inhibitors calculated using GraphPad PRISM software. F) The PKC-θ kinase activity was measured using the PKC kinase activity kit from ENZO life sciences and recombinant PKC-θ; C27 is an inhibitor of PKC-θ kinase activity, which is disclosed in Jimenez et al. (2013. […]

[1] = system: CD8^+ T-cells isolated from melanoma patient's bloods; experiment: Immunofluorescence of nuclear PKC-θ and ZEB1 in patient CD8+ T-cells; format: cell-based, human; conditions: all patient samples; vehicle or PMA/CI; inhibitor 8 μm; FIG. 3
Description: FIG. 3 is a photographic representation depicting a PKC-θ resistance signature in CD8^+ T-cells. A-B) CD8s were isolated from melanoma patient liquid biopsies (CR=complete response, SD=Stable Disease, PD=progression of disease) and were stimulated with PMA/CI and pre-clinically screened with either vehicle control or PKCθi nuclear peptide inhibitor. Samples were fixed and immunofluorescence microscopy was performed on these cells with primary antibodies for ZEB1, PKC-θ, and CD8. Representative images for each dataset are shown. Graph represents the TNFI for PKC-Theta and TNFI for ZEB1 measured using ImageJ to select the nucleus minus background (n=>20 cells/sample). Plot profiles for each cohort for ZEB1 and PKC-θ are also depicted (RED=ZEB1, Green=PKC-θ) with the PCC indicated. Graphs depicting the % inhibition or induction based on protein expression where also plotted for each protein target relative to untreated sample. C-D) CD8s were isolated from melanoma patient liquid biopsies (CR=complete response, PR=partial response, PD=progression of disease) and were stimulated with PMA/CI and pre-clinically screened with either vehicle control or our PKCθi nuclear peptide inhibitor. […] Graph represents the TNFI for TNF-α and TNFI for IFN-γ measured using ImageJ to select the nucleus minus background (n=>20 cells/sample). […]

PKC-β1 = target: T1, PKC-β1 (Homo sapiens, UniProt P05771); experiment: Nuclear localization of PKC-β1 (Fn/c, immunofluorescence), specificity; format: cell-based; conditions: MCF7 breast cancer cell line; FIG. 1D
T1 construct: endogenous in cells; host or cells: MCF7
T1 sequence (P05771 whole entry): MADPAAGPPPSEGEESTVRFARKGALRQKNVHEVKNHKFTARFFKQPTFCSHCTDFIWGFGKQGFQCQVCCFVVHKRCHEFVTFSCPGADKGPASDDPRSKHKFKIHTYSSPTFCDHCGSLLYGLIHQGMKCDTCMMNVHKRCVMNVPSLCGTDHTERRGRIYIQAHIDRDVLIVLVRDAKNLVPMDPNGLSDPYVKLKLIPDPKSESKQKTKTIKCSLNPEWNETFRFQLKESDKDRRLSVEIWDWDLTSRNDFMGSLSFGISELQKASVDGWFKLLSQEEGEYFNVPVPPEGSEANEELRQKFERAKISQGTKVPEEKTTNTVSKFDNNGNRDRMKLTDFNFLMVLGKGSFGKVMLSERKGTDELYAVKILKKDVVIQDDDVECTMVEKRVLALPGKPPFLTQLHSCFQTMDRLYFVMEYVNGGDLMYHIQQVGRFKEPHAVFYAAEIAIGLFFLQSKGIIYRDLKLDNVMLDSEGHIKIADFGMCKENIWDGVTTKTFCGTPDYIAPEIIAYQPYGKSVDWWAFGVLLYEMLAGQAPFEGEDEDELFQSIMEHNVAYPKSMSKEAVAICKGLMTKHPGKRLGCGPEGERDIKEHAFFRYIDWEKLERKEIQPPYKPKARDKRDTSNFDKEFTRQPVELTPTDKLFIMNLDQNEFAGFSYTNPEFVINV
Excerpt: as §1

PKC-β2 = target: T2, PKC-β2 (Homo sapiens, UniProt P05771); experiment: Nuclear localization of PKC-β2 (Fn/c, immunofluorescence), specificity; format: cell-based; conditions: MCF7 breast cancer cell line; FIG. 1D
T2 construct: endogenous in cells; host or cells: MCF7
T2 sequence (P05771 1-673 isoform P05771-2): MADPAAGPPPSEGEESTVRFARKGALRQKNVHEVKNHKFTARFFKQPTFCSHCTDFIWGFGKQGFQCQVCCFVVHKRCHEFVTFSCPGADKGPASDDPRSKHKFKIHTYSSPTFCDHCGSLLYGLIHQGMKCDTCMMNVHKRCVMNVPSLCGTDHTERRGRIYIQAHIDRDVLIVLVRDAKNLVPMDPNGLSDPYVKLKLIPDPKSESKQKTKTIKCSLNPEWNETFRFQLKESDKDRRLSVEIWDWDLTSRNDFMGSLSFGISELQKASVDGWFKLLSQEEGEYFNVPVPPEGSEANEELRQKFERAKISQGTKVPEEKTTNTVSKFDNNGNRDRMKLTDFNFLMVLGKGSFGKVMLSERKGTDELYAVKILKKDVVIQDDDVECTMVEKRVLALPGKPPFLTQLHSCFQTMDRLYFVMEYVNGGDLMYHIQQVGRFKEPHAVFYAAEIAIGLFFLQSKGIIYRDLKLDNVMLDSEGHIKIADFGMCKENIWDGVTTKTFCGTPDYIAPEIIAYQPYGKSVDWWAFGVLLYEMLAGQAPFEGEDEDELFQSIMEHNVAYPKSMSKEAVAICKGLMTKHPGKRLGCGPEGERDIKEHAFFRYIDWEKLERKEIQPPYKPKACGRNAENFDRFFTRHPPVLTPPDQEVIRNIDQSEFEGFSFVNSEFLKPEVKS
Excerpt: as §1

- nuclear localization of PKC-β1 (PKC-β1): no effect
- nuclear localization of PKC-β2 (PKC-β2): no effect
Sequence: RKEIDPPFRPKVK [PKCθi]
- proliferation of MCF7 cells (MCF7 cells): significantly inhibit
- expression of ZEB1 [1]: strikingly abrogated
- expression of nuclear PKC-θ [1]: strikingly abrogated
